Source: US8252781B2, “1,2-diazetidin-3-one derivatives and drugs containing same” (Kowa Company, Ltd., priority 2008, dated 2012)

Legend:
Type in all cases: biochemical
[1] = target: T1, human 11β-HSD2 (Homo sapiens, UniProt P80365); experiment: Enzyme inhibitory activity, human 11β-HSD2 (lysate of stably expressing HEK293 cells, cortisol by competitive ELISA); details: Table 1; human 11β-HSD2, cell lysate, 37° C. for 1 hour; read-out: h HSD2 in vitro assay (IC50 uM)
T1 construct: The obtained PCR products of about 0.9 kbp, 1.2 kbp, and 0.9 kbp were subcloned into an expression vector pcDNA3.1+/Zeo; expressed in transfected cells
T1 sequence (P80365 1-405): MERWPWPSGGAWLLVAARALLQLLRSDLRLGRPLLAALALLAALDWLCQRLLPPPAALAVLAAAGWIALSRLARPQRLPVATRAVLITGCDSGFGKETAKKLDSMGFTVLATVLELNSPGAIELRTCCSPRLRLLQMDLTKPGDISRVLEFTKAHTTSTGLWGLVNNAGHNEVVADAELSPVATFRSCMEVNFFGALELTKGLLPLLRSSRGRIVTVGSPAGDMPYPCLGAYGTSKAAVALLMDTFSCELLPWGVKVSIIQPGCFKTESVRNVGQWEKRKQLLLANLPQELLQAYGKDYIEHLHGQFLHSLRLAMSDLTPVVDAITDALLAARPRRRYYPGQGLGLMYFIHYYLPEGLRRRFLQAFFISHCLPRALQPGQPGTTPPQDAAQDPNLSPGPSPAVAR
Procedure: 1. Human 11β-HSD1-, Human 11β-HSD2- and Mouse 11β-HSD1-Gene Clonings and Establishment of Stably Expressing Cells
Human 11β-HSD1-, human 11β-HSD2-, and mouse 11β-HSD1-gene clonings were conducted using as a template a reverse transcription product of human-liver RNA, human-kidney RNA (CELL APPLICATIONS), and mouse-kidney RNA respectively, by means of PCR cloning with reference to nucleotide sequences of Genbank Accession Nos. NM_005525, NM_000196, and NM_008288. The obtained PCR products of about 0.9 kbp, 1.2 kbp, and 0.9 kbp were subcloned into an expression vector pcDNA3.1+/Zeo (Invitrogen).
Human 11β-HSD1- and human 11β-HSD2-expressing vectors were transfected into human kidney-derived cell line, HEK293 cells, using a transfection reagent, jet PEI (Funakoshi). Mouse 11β-HSD1 was transfected to Chinese hamster ovary-derived cell line, CHO-K1 cells. Selection was conducted with 200-400 μg/mL of zeocine (Invitrogen) to provide stably expressing-cell clones. The stably expressing cells were suspended in buffer solution A (20 mmol/L Tris-HCl, pH 7.4, 250 mmol/L sucrose, 1 mmol/L EGTA, 1 mmol/L EDTA, 1 mmol/L MgCl2), sonicated, and then stored at −80° C.
2. Assay of Enzyme Inhibitory Activity
An enzymatic reaction was conducted using a polystyrene 96-well plate. Each well was added with 1 μL of a test agent dissolved in DMSO and then diluted (0.003 to 3 mmol/L), and further added with 10 μL of cell lysate diluted to a concentration of 0.1 mg/mL to 0.4 mg/mL. Next, 90 μL of buffer solution A containing substrate (100 nmol/L cortisone or cortisol) and coenzyme (400 μmol/L NADPH or NAD+) was added and the mixture was incubated at 37° C. for 1 hour. The enzymatic reaction was stopped by treating at 95° C. for 3 minutes. Cortisol that was present in the reaction solution was determined by a competitive ELISA shown below.
Anti-rabbit IgG antibody (Chemi-con) diluted to 2 μg/mL with carbonate buffer solution (pH 9.6) was added in 100 μL each to a 96-well immuno plate (Nunc) and immobilized by an incubation at 4° C. overnight. 50 μL of enzymatic reaction solution was put onto the plates, and further, anti-cortisol antibody (Cosmo Bio) and HRP-labeled cortisol (Cosmo Bio), diluted with buffer solution B (25 mmol/L Tris-HCl pH 7.4, 137 mmol/L NaCl, 2.68 mmol/L KCl), were added in 50 μL respectively and incubated at 4° C. overnight. After washed three times with buffer solution B containing 0.05% Tween 20, the plates were allowed to develop color by adding 100 μL of color reagent, TMB (Moss). The color reaction was stopped by 25 μL of 1 mol/L sulfuric acid and the absorbance was determined at 450 nm with a microplate reader (Molecular Device, VersaMax).
The values of human 11β-HSD1, human 11β-HSD2, and mouse 11β-HSD1 activities were subtracted from 100, and the resultant values were regarded as the respective 11β-HSD inhibition rates of example compounds. […] The comparison of human 11β-HSD1 and human 11β-HSD2 inhibiting activities is shown in Table 1, and the comparison of human 11β-HSD1 and mouse 11β-HSD1 inhibiting activities is shown in Table 2.

[2] = target: T2, mouse 11β-HSD1 (Mus musculus, UniProt P50172); experiment: Enzyme inhibitory activity, mouse 11β-HSD1 (lysate of stably expressing CHO-K1 cells, cortisol by competitive ELISA); details: Table 2; mouse 11β-HSD1, cell lysate, 37° C. for 1 hour; read-out: m HSD1 in vitro assay (IC50 uM)
T2 construct: The obtained PCR products of about 0.9 kbp, 1.2 kbp, and 0.9 kbp were subcloned into an expression vector pcDNA3.1+/Zeo; expressed in transfected cells
How it was run: (§1)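 Sonicated lysates of stably transfected cells (diluted to 0.1–0.4 mg/mL before addition) reacted for 1 h at 37 °C in pH 7.4 Tris/sucrose/EGTA/EDTA/MgCl2 buffer with 100 nmol/L cortisone or cortisol and 400 μmol/L NADPH or NAD+, then were heat-stopped at 95 °C. Inhibition rate = 100 minus residual activity.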

[3] = target: T3, human 11β-HSD1 (Homo sapiens, UniProt P28845); experiment: Enzyme inhibitory activity, human 11β-HSD1 (lysate of stably expressing HEK293 cells, cortisol by competitive ELISA); details: Table 1; human 11β-HSD1, cell lysate, 37° C. for 1 hour; read-out: h HSD1 in vitro assay (IC50 uM)
T3 construct: The obtained PCR products of about 0.9 kbp, 1.2 kbp, and 0.9 kbp were subcloned into an expression vector pcDNA3.1+/Zeo; expressed in transfected cells
How it was run: as §1

T3 sequence (P28845 whole entry): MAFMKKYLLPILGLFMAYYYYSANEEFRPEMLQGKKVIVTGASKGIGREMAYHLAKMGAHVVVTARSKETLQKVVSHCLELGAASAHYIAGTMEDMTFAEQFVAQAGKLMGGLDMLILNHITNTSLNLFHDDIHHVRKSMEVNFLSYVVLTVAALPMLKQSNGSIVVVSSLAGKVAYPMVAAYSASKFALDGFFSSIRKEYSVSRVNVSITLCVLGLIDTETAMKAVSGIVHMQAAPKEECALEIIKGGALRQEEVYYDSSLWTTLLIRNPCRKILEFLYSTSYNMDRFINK
T2 sequence (P50172 whole entry): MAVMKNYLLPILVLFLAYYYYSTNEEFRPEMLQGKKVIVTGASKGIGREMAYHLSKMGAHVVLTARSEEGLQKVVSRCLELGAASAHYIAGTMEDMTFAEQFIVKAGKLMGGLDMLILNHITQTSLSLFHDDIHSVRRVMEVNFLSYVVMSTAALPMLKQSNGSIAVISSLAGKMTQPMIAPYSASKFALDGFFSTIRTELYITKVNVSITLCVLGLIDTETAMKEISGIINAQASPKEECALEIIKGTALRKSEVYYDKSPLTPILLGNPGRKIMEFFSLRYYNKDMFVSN

| IC50 [1] | IC50 [2] | IC50 [3] | Compound |
| --- | --- | --- | --- |
| 3 µM | 0.04 µM | 0.015 µM | CC1(C)C(=O)N(C2C3CC4CC(C3)CC2C4)N1Cc1ccccc1Br (stereo not shown) [Example 39, 1-(2-bromobenzyl)-4,4-dimethyl-2-(adamantan-2-yl)-1,2-diazetidin-3-one] |
| 10 µM | 0.084 µM | 0.012 µM | CC1(C)C(=O)N(C2C3CC4CC(C3)CC2C4)N1Cc1ccccc1I (stereo not shown) [Example 40, 1-(2-iodobenzyl)-4,4-dimethyl-2-(adamantan-2-yl)-1,2-diazetidin-3-one] |
| 3.2 µM | 0.13 µM | 0.023 µM | CC1(C)C(=O)N(C2C3CC4CC(C3)CC2C4)N1Cc1cc(F)ccc1Cl (stereo not shown) [Example 41, 1-(2-chloro-5-fluorobenzyl)-4,4-dimethyl-2-(adamantan-2-yl)-1,2-diazetidin-3-one] |
| > 30 µM | 0.5 µM | 0.031 µM | CC1(C)C(=O)N(C2C3CC4CC(C3)CC2C4)N1Cc1ccc(F)cc1C(F)(F)F (stereo not shown) [Example 48, 1-[4-fluoro-2-(trifluoromethyl)benzyl]-4,4-dimethyl-2-(adamantan-2-yl)-1,2-diazetidin-3-one] |
| 6.6 µM | 0.16 µM | 0.042 µM | CCc1ccccc1CN1N(C2C3CC4CC(C3)CC2C4)C(=O)C1(C)C (stereo not shown) [Example 50, 1-(2-ethylbenzyl)-4,4-dimethyl-2-(adamantan-2-yl)-1,2-diazetidin-3-one] |
| 9.5 µM | 0.16 µM | 0.078 µM | CC1(C)C(=O)N(C2C3CC4CC(C3)CC2C4)N1Cc1ccc(Cl)cc1Cl (stereo not shown) [Example 52, 1-(2,4-dichlorobenzyl)-4,4-dimethyl-2-(adamantan-2-yl)-1,2-diazetidin-3-one] |
| 1.1 µM | 0.15 µM | 0.0082 µM | CSc1ccccc1CN1N(C2C3CC4CC(C3)CC2C4)C(=O)C1(C)C (stereo not shown) [Example 60, 4,4-dimethyl-1-[2-(methylthio)benzyl]-2-(adamantan-2-yl)-1,2-diazetidin-3-one] |
| 3 to 30 µM | 0.13 µM | 0.046 µM | CC1(C)C(=O)N(C2CCCCCCC2)N1Cc1cccc(Cl)c1Cl [Example 74, 2-cyclooctyl-1-(2,3-dichlorobenzyl)-4,4-dimethyl-1,2-diazetidin-3-one] |
| 4.8 µM | 0.14 µM | 0.031 µM | CC1(C)C(=O)N(C2CCCCCCC2)N1Cc1ccc(F)cc1Cl [Example 76, 1-(2-chloro-4-fluorobenzyl)-2-cyclooctyl-4,4-dimethyl-1,2-diazetidin-3-one] |
| 2 µM | 0.092 µM | 0.016 µM | CC1(C)C(=O)N(C2CCCCCCC2)N1Cc1cc(F)ccc1Cl [Example 77, 1-(2-chloro-5-fluorobenzyl)-2-cyclooctyl-4,4-dimethyl-1,2-diazetidin-3-one] |
| > 30 µM |  | 0.72 µM | CC1(C)C(=O)N(C2C3CC4CC(C3)CC2C4)N1C(=O)c1ccccc1F (stereo not shown) [Example 119, 1-[(2-fluorophenyl)carbonyl]-4,4-dimethyl-2-(adamantan-2-yl)-1,2-diazetidin-3-one] |
| > 30 µM |  | 0.27 µM | CC1(C)C(=O)N(C2C3CC4CC(C3)CC2C4)N1C(=O)c1ccccc1Br (stereo not shown) [Example 120, 1-[(2-bromophenyl)carbonyl]-4,4-dimethyl-2-(adamantan-2-yl)-1,2-diazetidin-3-one] |
| 14 µM |  | 0.071 µM | CC1(C)C(=O)N(C2C3CC4CC(C3)CC2C4)N1C(=O)c1cccc2ccccc12 (stereo not shown) [Example 141, 4,4-dimethyl-1-(naphthalen-1-ylcarbonyl)-2-(adamantan-2-yl)-1,2-diazetidin-3-one] |
| > 30 µM | 0.23 µM | 0.5 µM | Cc1ccc(C)c(C(=O)N2N(C3C4CC5CC(C4)CC3C5)C(=O)C2(C)C)c1 (stereo not shown) [Example 161, 1-[(2,5-dimethylphenyl)carbonyl]-4,4-dimethyl-2-(adamantan-2-yl)-1,2-diazetidin-3-one] |
| 3 to 30 µM |  | 0.062 µM | CC1(C)C(=O)N(C2C3CC4CC(C3)CC2C4)N1c1ccccc1 (stereo not shown) [Example 181, 4,4-dimethyl-1-phenyl-2-(adamantan-2-yl)-1,2-diazetidin-3-one] |
| > 30 µM | 0.76 µM | 0.082 µM | CC1(C)C(=O)N(C2C3CC4CC(C3)CC2C4)N1c1ccccc1[N+](=O)[O-] (stereo not shown) [Example 188, 4,4-dimethyl-1-(2-nitrophenyl)-2-(adamantan-2-yl)-1,2-diazetidin-3-one] |
| 3 to 30 µM |  | 0.022 µM | CC1(C)C(=O)N(C2C3CC4CC(C3)CC2C4)N1c1ccccc1Cl (stereo not shown) [Example 189, 1-(2-chlorophenyl)-4,4-dimethyl-2-(adamantan-2-yl)-1,2-diazetidin-3-one] |
| 3 to 30 µM |  | 0.093 µM | CC1(C)C(=O)N(C2C3CC4CC(C3)CC2C4)N1c1cccc(Cl)c1 (stereo not shown) [Example 190, 1-(3-chlorophenyl)-4,4-dimethyl-2-(adamantan-2-yl)-1,2-diazetidin-3-one] |
| > 30 µM |  | 0.026 µM | COc1ccc(N2N(C3C4CC5CC(C4)CC3C5)C(=O)C2(C)C)cc1 (stereo not shown) [Example 203, 1-(4-methoxyphenyl)-4,4-dimethyl-2-(adamantan-2-yl)-1,2-diazetidin-3-one] |
| 3 to 30 µM | 0.44 µM | 0.0061 µM | CC1(C)C(=O)N(C2C3CC4CC(C3)CC2C4)N1c1cccc(Cl)c1Cl (stereo not shown) [Example 206, 1-(2,3-dichlorophenyl)-4,4-dimethyl-2-(adamantan-2-yl)-1,2-diazetidin-3-one] |
| 3 to 30 µM |  | 0.02 µM | CC1(C)C(=O)N(C2C3CC4CC(C3)CC2C4)N1c1ccc(Cl)cc1Cl (stereo not shown) [Example 208, 1-(2,4-dichlorophenyl)-4,4-dimethyl-2-(adamantan-2-yl)-1,2-diazetidin-3-one] |
| > 30 µM |  | 0.088 µM | CC1(C)C(=O)N([C@H]2C3CC4CC2C[C@](O)(C4)C3)N1c1cccc(Cl)c1Cl [Example 231, trans-1-(2,3-dichlorophenyl)-2-(5-hydroxyadamantan-2-yl)-4,4-dimethyl-1,2-diazetidin-3-one] |
| 3 to 30 µM |  | 0.028 µM | CC1(C)C(=O)N([C@H]2C3CC4CC2C[C@@](O)(C4)C3)N1c1ccc2ccccc2c1 [Example 248, cis-2-(5-hydroxyadamantan-2-yl)-4,4-dimethyl-1-(naphthalen-2-yl)-1,2-diazetidin-3-one] |
| 19 µM |  | 0.036 µM | CC1(C)C(=O)N(C2C3CC4CC(C3)CC2C4)N1/C=C/c1ccccc1 (stereo not shown) [Example 265, 4,4-dimethyl-1-[(E)-2-phenylethenyl]-2-(adamantan-2-yl)-1,2-diazetidin-3-one] |
